Like-named read-outs stand apart in the source and are kept apart here.
Columns and labels:
[1] = Cytotoxic concentration (Example 2); type: cell-based; details: human, MT-4 cells; read-out: cytotoxic concentration (CC50)
[2] = test system: 6 different primary HIV-1 isolates; experiment: Activity against primary HIV-1 isolates in PBMCs; type: cell-based; details: read-out: activity against primary HIV-1 isolates, range
HIV-1 strain NL4.3 = experiment: Anti-HIV-1 assay (p24 Ag ELISA); type: cell-based; details: for IC50: read-out: IC50 against HIV-1 NL4.3; for p24 viral core antigen in supernatant: MT-4, NL4.3
Protocol: (§1) The antiviral activity of CADA against HIV-1 and RHV-7 was investigated. PBMCs and […] cell-depleted PBMCs (removed with CD8 magnetic beads; Dynal AS, Oslo, Norway), previously activated with purified PHA (2 μg/ml) and rhIL-2 (1 ng/ml) for 3 days, were pelleted and exposed to HIV-1 (1 ng p24 Ag per 10^6 cells) for 2 hours at 370C. Then the cells were washed three times with warm medium and cultured in complete medium containing rhIL-2 (1 ng/ml) in the presence or absence of different concentrations of CADA hydrochloride. The anti-HIV-1 assays were also performed in MT-4 and SupT1 cells. CADA hydrochloride was diluted in the plates, then the MT-4 cells or SupT1 cells were added and finally the T-tropic HIV-1 strains. The supernatant was collected at day 5 for MT-4 cells, day 8 for SupT1 cells and day 12 for PBMCs, and stored at −20° C. and analyzed for HIV-1 core antigen by p24 Ag ELISA (NEN, Brussels, Belgium). The SupT1 cells were refreshed on day 4, and half of the medium and cells were replaced and fresh CADA-free medium was added. For the PBMCs, fresh culture medium was added at day 6 containing rhIL-2 (but no CADA). For the anti-HHV-7 assays in PBMCs, CADA hydrochloride was diluted in a plate, 2×10˜cells were added and then HHV-7 (KHR strain) was added in complete medium containing rhIL-2 (1 ng/ml). Fresh culture medium was added again at day 6 containing rhIL-2 (but no CADA). The same infection protocol was used for the SupT1 cells, but without rhIL-2. The SupT1 cells were refreshed on day 4 and day 8, half of the medium and the cells were replaced, and fresh medium without CADA was added. The HHV-7 antigen expression was monitored (at day 12) with a specific mAb to HHV-7 (RK-4) (Advanced Biotechnologies, Columbia, Md.) by flow cytometry, as described previously (Thang, Y., et al., Antiviral Res. 43:23-35 (1999)).
(§2) Table 4 presents the results for MT-4 cells pretreated with CADA for 1 day at 8.1 μM and then infected with the HIV-1 strain NL4.3 or RF in the presence or absence of CADA. […] As three CD4 binding events are needed to efficiently activate HIV-1 Env trimers (Layne, S. P., et al., Nature 346: 602-605 (1990)), multimeric CD4 binding is required for HIV infection, further confirming that receptor density plays a crucial role in the efficiency of viral infectivity (Platt, E. J., et al., J. Virol. 71: 883-890 (1997)). […] Primary HIV isolates seem to be much more dependent on the level of CD4 expression (Kabat; D., et al., J. Virol. 68:2570-2577 (1994)). […] Although CD4-independent viruses are described (Hofflian, T. L., et al., Proc. Natl. Acad. Sci. U.S.A. 96: 63 59-6364 (1999)), these are much more sensitive to neutralization by antibodies, which explains the rarity of CD4-independent wild-type HIV variants (Kolchinski, P., et al., J. Virol. 75: 204 1-2050 (2001)).

HIV-1 strain RF = experiment: Anti-HIV-1 assay (p24 Ag ELISA); type: cell-based; details: for IC50: read-out: IC50 against HIV-1 RF; for p24 viral core antigen in supernatant: MT-4, RF
Protocol: as §1, §2

CD4 = CD4 (Homo sapiens, UniProt P01730); experiment: Quantification of the CD4 receptor by antibody binding; type: cell-based; parameters: endogenous in cells; the paragraph deals with MT-4, SupT1 cells and PBMCs; details: after treatment with CADA
Protocol: as §2

[3] = Cytotoxic concentration (Example 2); type: cell-based; details: human, SupT1 cells; read-out: cytotoxic concentration (CC50)
CD11b = experiment: Cell surface antigen expression by flow cytometry (Table 2); type: cell-based, human; details: CADA 16 μM, 4 days, percentage of positive cells, unit not given
Protocol: (§3) Expression of various other surface antigens was also examined in MT-4 cells, SupT1 cells and PBMCs after incubation with CADA (16 μM) or CADA-free medium at 37° C. for 4 days. After washing with phosphate-buffered saline (PBS) containing 2% FCS(fetal calf serum), the cells were incubated with mAb (as indicated in Table 1) for 20 min at 4° C. Then the cells were washed, fixed with 1% formaldehyde and analyzed by flow cytometry. All mAbs were purchased from Becton-Dickinson (Erembodegem, Belgium).

CD8 = experiment: as above; type: cell-based, human; details: CADA 16 μM, 4 days, percentage of positive cells, unit not given
Protocol: as §3

[4] = Human immunodeficiency virus 1, MT4, MT-4 cells
[5] = Human immunodeficiency virus 1, PBMC
[6] = Human immunodeficiency virus 1, SUP-T1, SupT1 cells
[7] = pre-treated (CADA 8.1 μM, 24 hours), CADA 0.13 μM after infection
[8] = pre-treated (CADA 8.1 μM, 24 hours), CADA 0.6 μM after infection
[9] = pre-treated (CADA 8.1 μM, 24 hours), CADA 3.2 μM after infection

`C=C1CN(S(=O)(=O)c2ccc(C)cc2)CCCN(Cc2ccccc2)CCCN(S(=O)(=O)c2ccc(C)cc2)C1` [CADA] showed a CC50 [1] of 134 µM, an IC50 [2] of 0.002 to 2.3 µM and an IC50 (HIV-1 strain NL4.3; [4]) of 0.5 µM. The IC50 (HIV-1 strain NL4.3; [5]) was 1.6 µM, the IC50 (HIV-1 strain NL4.3; [6]) was 3.1 µM and the “p24 viral core antigen in supernatant” value (HIV-1 strain NL4.3; cells pre-treated with CADA hydrochloride 8.1 μM 24 hours, medium without CADA after infection, untreated control 158627) was 34839 pg/mL. The “p24 viral core antigen in supernatant” value (HIV-1 strain NL4.3; not pre-treated, CADA 0.13 μM) was 127838 pg/mL, the “p24 viral core antigen in supernatant” value (HIV-1 strain NL4.3; not pre-treated, CADA 0.6 μM) was 63098 pg/mL and the “p24 viral core antigen in supernatant” value (HIV-1 strain NL4.3; not pre-treated, CADA 3.2 μM) was under 5 pg/mL. For the same compound, the “p24 viral core antigen in supernatant” value (HIV-1 strain NL4.3; [7]) was 33785 pg/mL, the “p24 viral core antigen in supernatant” value (HIV-1 strain NL4.3; [8]) was under 5 pg/mL and the “p24 viral core antigen in supernatant” value (HIV-1 strain NL4.3; [9]) was under 5 pg/mL. For the same compound, the IC50 (HIV-1 strain RF; [4]) was 0.9 µM, the IC50 (HIV-1 strain RF; [5]) was 1.9 µM and the IC50 (HIV-1 strain RF; [6]) was 1.8 µM. The “p24 viral core antigen in supernatant” value (HIV-1 strain RF; cells pre-treated with CADA hydrochloride 8.1 μM 24 hours, medium without CADA after infection, untreated control 100002) was 42853 pg/mL, the “p24 viral core antigen in supernatant” value (HIV-1 strain RF; not pre-treated, CADA 0.13 μM) was 75118 pg/mL and the “p24 viral core antigen in supernatant” value (HIV-1 strain RF; not pre-treated, CADA 0.6 μM) was 56139 pg/mL. The “p24 viral core antigen in supernatant” value (HIV-1 strain RF; not pre-treated, CADA 3.2 μM) was under 5 pg/mL, the “p24 viral core antigen in supernatant” value (HIV-1 strain RF; [7]) was 35894 pg/mL and the “p24 viral core antigen in supernatant” value (HIV-1 strain RF; [8]) was under 5 pg/mL. For the same compound, the “p24 viral core antigen in supernatant” value (HIV-1 strain RF; [9]) was under 5 pg/mL, the “amount of CD4 Ab bound to the cells” value (CD4) was “approximately 5,000 /cell” and the “decrease in bound antibody” value (CD4) was about 90%. The CC50 [3] was 185 µM, the “CD11b cell surface antigen expression” value (CD11b; MT-4 T-cells) was 9.7 and the “CD11b cell surface antigen expression” value (CD11b; PBMCs) was 12.3. The “CD11b cell surface antigen expression” value (CD11b; SupT1 T-cells) was 0.6, the “CD8 cell surface antigen expression” value (CD8; MT-4 T-cells) was 3.5 and the “CD8 cell surface antigen expression” value (CD8; PBMCs) was 25.1. The “CD8 cell surface antigen expression” value (CD8; SupT1 T-cells) was 92.3.
